Measured values as given in BigSolDB 2.1.

COc1ccc(C=O)cc1O
solubility (mole fraction)
Settings	in ethanol	in ethyl acetate	in formic acid	in isobutanol	in isobutyl acetate	in isopropanol	in methanol	in methyl acetate	in n-butanol	in n-propanol
278.15 K	0.0125	0.0203	0.0432	0.0086	0.015	0.0072	0.0156	0.0382	0.012	0.0186
283.15 K	0.0153	0.0246	0.0486	0.0098	0.0165	0.0092	0.0188	0.0425	0.0149	0.0209
288.15 K	0.0184	0.029	0.0571	0.0161	0.0184	0.0118	0.0231	0.0536	0.017	0.0242
293.15 K	0.0227	0.0342	0.068	0.0192	0.0216	0.0149	0.0291	0.0633	0.0219	0.0284
298.15 K	0.0279	0.0401	0.0832	0.0223	0.025	0.0186	0.0362	0.074	0.0253	0.0331
303.15 K	0.0338	0.0478	0.101	0.0271	0.0305	0.0259	0.0445	0.0866	0.0352	0.04
308.15 K	0.0429	0.0559	0.115	0.0338	0.034	0.0296	0.059	0.104	0.0445	0.0455
313.15 K	0.0547	0.0655	0.137	0.042	0.0408	0.0386	0.0836	0.121	0.0542	0.0582
318.15 K	0.0695	0.0806	0.165	0.0499	0.0509	0.0576	0.134	0.147	0.0641	0.0751
